We go through 23 compounds from ChEMBL document CHEMBL1128871, “Synthesis and in vitro cytotoxicity of ()-acetomycin and related analogs” (Bioorg Med Chem Lett, 1995).

The subject of series [1] is DA-3 cell line. As to the kind of experiment: Tested for cytotoxic activity against DA-3 mouse mammary adenocarcinoma cells in MTT assay. The class given is functional, cell-based.
Series [2] relates to MCF7. As to the kind of experiment: Tested for cytotoxic activity against MCF7-WT human breast adenocarcinoma cells in MTT assay. The class given is functional, cell-based.
For series [3], the system named is B16. As to the kind of experiment: Tested for cytotoxic activity against B16 mouse melanoma cells in MTT assay. The class given is functional, cell-based.
In series [4] the test system is HT-29. As to the kind of experiment: Tested for cytotoxic activity against HT-29 human colon adenocarcinoma cells in MTT assay. The class given is functional, cell-based. A general note: Tetrazolium assays rely on reduction of a dye to a coloured formazan, in cell work by metabolically active cells.
For series [5], the system named is MCF7. As to the kind of experiment: Tested for cytotoxic activity against MCF7-WT human breast adenocarcinoma cells in MTT assay. In kind it is functional, cell-based.
Series [6] is described as follows: Half-life period was determined in mouse blood. In kind it is ADME, organism-based.

With `CC(=O)O[C@@H]1OC(=O)[C@](OC(C)=O)(C(C)=O)[C@@H]1C`, the IC50 in series [1], in series [2], in series [3] and in series [4] was greater than 50 µM in each case.

Turning to `CC(=O)O[C@@H]1OC(=O)[C@@](OC(C)=O)(C(C)=O)[C@@H]1C`, the IC50 in series [1], in series [2], in series [3] and in series [4] was greater than 50 µM in each case.

For `CC(=O)[C@]1(C)C(=O)O[C@@H](OC(=O)C(C)(C)C)[C@H]1C`, the IC50 in series [1] stood at 4 µM; in series [2] it was 7 µM; in series [3], 10 µM; in series [4] it was 9 µM.

Consider `CC(=O)O[C@@H]1OC(=O)[C@](Cc2ccccc2)(C(C)=O)[C@@H]1C`, for which the IC50 in series [1] was 45 µM; in series [5] it was 48 µM; in series [3], 41 µM; in series [4] it was 40 µM.

As to `CC(=O)O[C@@H]1OC(=O)[C@@](C)(C(=O)c2ccccc2)[C@@H]1C`, the IC50 in series [1] turned out to be 15 µM; in series [5] it was 15 µM; in series [3], 7 µM; in series [4], 7 µM.

Regarding `CC(=O)[C@@]1(C)C(=O)O[C@@H](OC(=O)c2ccccc2)[C@H]1C`, the IC50 turned out to be 1 µM in series [1], 3 µM in series [2], 1 µM in series [3] and 1 µM in series [4]. This compound had a half-life in series [6] of less than 5 min.

For `CC(=O)O[C@@H]1OC(=O)[C@](C)(C(=O)CBr)[C@@H]1C`, the IC50 in series [1] came to 4 µM; in series [2], 4 µM; in series [3], 6 µM; in series [4], 6 µM.

`CC(=O)O[C@@H]1OC(=O)[C@@](O)(C(C)=O)[C@@H]1C`: the IC50 in series [1], in series [2], in series [3] and in series [4] was greater than 50 µM each time.

As to `CC(=O)[C@]1(C)C(=O)O[C@@H](OC(=O)c2ccccc2)[C@H]1C`, the IC50 in series [1] is 2 µM; in series [2] it was 8 µM; in series [3], 5 µM; in series [4], 6 µM.

Consider `CC(=O)[C@@]1(C)C(=O)O[C@@H](OC(=O)C(C)(C)C)[C@H]1C`, for which the IC50 in series [1] was 1 µM; in series [2] it was 3 µM; in series [3], 2 µM; in series [4], 2 µM. For the same compound, the half-life in series [6] was less than 5 min.

Consider `CC(=O)O[C@@H]1OC(=O)[C@@](Cc2ccccc2)(C(C)=O)[C@@H]1C`, for which the half-inhibitory concentration (IC50) in series [1] was determined as 44 µM; in series [2], 51 µM; in series [3] it was 45 µM; in series [4], 39 µM.

As for `CC(=O)O[C@@H]1OC(=O)[C@](O)(C(C)=O)[C@@H]1C`, the IC50 in series [1], in series [2], in series [3] and in series [4] was greater than 50 µM each time.

Regarding `CC(=O)O[C@@H]1OC(=O)[C@@](C)(C(C)=O)[C@@H]1C(C)C`, the IC50 in series [1], in series [2], in series [3] and in series [4] was greater than 50 µM throughout.

In the case of `CC(=O)O[C@@H]1OC(=O)[C@](C)(C(C)=O)[C@@H]1C(C)C`, the IC50 in series [1], in series [2], in series [3] and in series [4] was greater than 50 µM each time.

As for `CCO[C@@H]1OC(=O)[C@](C)(C(C)=O)[C@@H]1C`, the IC50 in series [1], in series [2], in series [3] and in series [4] was greater than 50 µM in each case.

As to `CC(=O)O[C@@H]1OC(=O)[C@](Br)(C(C)=O)[C@@H]1C`, the IC50 in series [1] was determined as 6 µM; in series [2], 17 µM; in series [3], 9 µM; in series [4] it was 12 µM.

Take `CCO[C@@H]1OC(=O)[C@@](C)(C(C)=O)[C@@H]1C`: the IC50 in series [1], in series [2], in series [3] and in series [4] was greater than 50 µM each time.

Take `CC(=O)O[C@@H]1OC(=O)[C@@](C(C)=O)(C2SCCCS2)[C@@H]1C`: the IC50 in series [1], in series [2], in series [3] and in series [4] was greater than 50 µM each time.

As for `CC(=O)O[C@@H]1OC(=O)[C@@H](C(C)=O)[C@@H]1C`, the IC50 in series [1], in series [2], in series [3] and in series [4] was greater than 50 µM throughout.

Turning to `CC(=O)CC[C@]1(C(C)=O)C(=O)O[C@@H](OC(C)=O)[C@H]1C`, the IC50 worked out at 8 µM in series [1], 6 µM in series [2], 7 µM in series [3] and 7 µM in series [4].

For the compound `CC(=O)O[C@@H]1OC(=O)[C@](C)(C(C)=O)[C@@H]1C`, the IC50 in series [1] is 7 µM; in series [2] it was 6 µM; in series [3], 4 µM; in series [4], 5 µM. In series [6], this compound displayed a half-life of less than 5 min.

For `CC(=O)O[C@@H]1OC(=O)[C@@](C)(C(C)=O)[C@@H]1C`, the 50% inhibitory concentration (IC50) in series [1] was 9 µM; in series [2] it was greater than 10 µM; in series [3], 14 µM; in series [4], 12 µM.

With `CC(=O)O[C@@H]1OC(=O)[C@](OC(=O)c2ccccc2)(C(C)=O)[C@@H]1C`, the IC50 in series [1] is 3 µM; in series [2], 22 µM; in series [3], 6 µM; in series [4], 8 µM.

Usually IC50 stands for the concentration that gives 50% inhibition. As a reminder, the half-life is the time in which the quantity being followed falls by half. Read a high half-life as slow decline.
